# Measured values from PubChem BioAssay (NCI).
#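 Five compound concentrations were applied to cells in 96-well plates for 48 hours; endpoints were derived by simple linear interpolation of the resulting dose-response curve. The concentration for 50% growth inhibition is given as GI50. TGI denotes the concentration required for complete inhibition of growth.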
# What was measured:
# Assay in all cases: growth of human tumour cells (NCI), 48 h
# [1] = test system: 786-0 renal
# [2] = test system: A498 renal
# [3] = test system: A549 NSCLC
# [4] = test system: ACHN renal
# [5] = test system: BT-549 breast
# [6] = test system: CAKI-1 renal
# [7] = test system: CCRF-CEM leukemia
# [8] = test system: COLO 205 colon
# [9] = test system: DU-145 prostate
# [10] = test system: EKVX NSCLC
# [11] = test system: HCC-2998 colon
# [12] = test system: HCT-116 colon
# [13] = test system: HCT-15 colon
# [14] = test system: HL-60(TB) leukemia
# [15] = test system: HOP-62 NSCLC
# [16] = test system: HOP-92 NSCLC
# [17] = test system: HS 578T breast
# [18] = test system: HT29 colon
# [19] = test system: IGROV1 ovarian
# [20] = test system: K-562 leukemia
# [21] = test system: KM12 colon
# [22] = test system: LOX IMVI melanoma
# [23] = test system: M14 melanoma
# [24] = test system: MALME-3M melanoma
# [25] = test system: MCF7 breast
# [26] = test system: MDA-MB-231 breast
# [27] = test system: MOLT-4 leukemia
# [28] = test system: NCI-H23 lung
# [29] = test system: NCI-H460 lung
# [30] = test system: NCI-H522 lung
# [31] = test system: NCI/ADR-RES ovarian
# [32] = test system: OVCAR-3 ovarian
# [33] = test system: OVCAR-4 ovarian
# [34] = test system: OVCAR-5 ovarian
# [35] = test system: OVCAR-8 ovarian
# [36] = test system: PC-3 prostate
# [37] = test system: RPMI-8226 leukemia
# [38] = test system: RXF 393 renal
# [39] = test system: SF-268 CNS
# [40] = test system: SF-295 CNS
# [41] = test system: SF-539 CNS
# [42] = test system: SK-MEL-2 melanoma
# [43] = test system: SK-MEL-28 melanoma
# [44] = test system: SK-MEL-5 melanoma
# [45] = test system: SK-OV-3 ovarian
# [46] = test system: SN12C renal
# [47] = test system: SNB-19 CNS
# [48] = test system: SNB-75 CNS
# [49] = test system: SR leukemia
# [50] = test system: SW-620 colon
# [51] = test system: T-47D breast
# [52] = test system: TK-10 renal
# [53] = test system: U251 CNS
# [54] = test system: UACC-257 melanoma
# [55] = test system: UACC-62 melanoma
# [56] = test system: UO-31 renal
smiles,measurement,setting,value
COc1ccc2c(c1OC)C(=O)OC2C1c2c(c(N)c3c(c2OC)OCO3)CCN1C (configuration not stated),GI50,[1],7.51 µM
same,TGI,[1],> 100 µM
same,GI50,[2],2.44 µM
same,TGI,[2],13.3 µM
same,GI50,[3],6.23 µM
same,TGI,[3],> 100 µM
same,GI50,[4],6.75 µM
same,TGI,[4],> 100 µM
same,GI50,[5],2.32 µM
same,TGI,[5],9.12 µM
same,GI50,[6],3.81 µM
same,TGI,[6],> 100 µM
same,GI50,[7],2.63 µM
same,TGI,[7],8.44 µM
same,GI50,[8],5.6 µM
same,TGI,[8],26 µM
same,GI50,[9],2.8 µM
same,TGI,[9],12 µM
same,GI50,[10],5.18 µM
same,TGI,[10],> 100 µM
same,GI50,[11],6.86 µM
same,TGI,[11],28.2 µM
same,GI50,[12],3.19 µM
same,TGI,[12],14.6 µM
same,GI50,[13],2.64 µM
same,TGI,[13],8.38 µM
same,GI50,[14],4.02 µM
same,TGI,[14],26.4 µM
same,GI50,[15],5.15 µM
same,TGI,[15],> 100 µM
same,GI50,[16],12.2 µM
same,TGI,[16],59.3 µM
same,GI50,[17],2.75 µM
same,TGI,[17],9.39 µM
same,GI50,[18],3.96 µM
same,TGI,[18],52.8 µM
same,GI50,[19],1.68 µM
same,TGI,[19],6.68 µM
same,GI50,[20],4.43 µM
same,TGI,[20],> 100 µM
same,GI50,[21],3.33 µM
same,TGI,[21],62.7 µM
same,GI50,[22],4.8 µM
same,TGI,[22],24 µM
same,GI50,[23],1.86 µM
same,TGI,[23],4.41 µM
same,GI50,[24],6.51 µM
same,TGI,[24],> 100 µM
same,GI50,[25],3.11 µM
same,TGI,[25],16.1 µM
same,GI50,[26],3.15 µM
same,TGI,[26],20.7 µM
same,GI50,[27],4.96 µM
same,TGI,[27],> 100 µM
same,GI50,[28],4.74 µM
same,TGI,[28],> 100 µM
same,GI50,[29],3.37 µM
same,TGI,[29],11.6 µM
same,GI50,[30],2.07 µM
same,TGI,[30],5.3 µM
same,GI50,[31],1.58 µM
same,TGI,[31],3.2 µM
same,GI50,[32],4.01 µM
same,TGI,[32],34.6 µM
same,GI50,[33],5.33 µM
same,TGI,[33],> 100 µM
same,GI50,[34],9.35 µM
same,TGI,[34],38.8 µM
same,GI50,[35],3.94 µM
same,TGI,[35],35.2 µM
same,GI50,[36],3.42 µM
same,TGI,[36],> 100 µM
same,GI50,[37],3.04 µM
same,TGI,[37],12.2 µM
same,GI50,[38],4.25 µM
same,TGI,[38],> 100 µM
same,GI50,[39],4.57 µM
same,TGI,[39],23 µM
same,GI50,[40],5.59 µM
same,TGI,[40],61.8 µM
same,GI50,[41],2.11 µM
same,TGI,[41],5.53 µM
same,GI50,[42],3.17 µM
same,TGI,[42],28.2 µM
same,GI50,[43],8.71 µM
same,TGI,[43],> 100 µM
same,GI50,[44],3.03 µM
same,TGI,[44],13.2 µM
same,GI50,[45],3.23 µM
same,TGI,[45],23.4 µM
same,GI50,[46],4.46 µM
same,TGI,[46],21.9 µM
same,GI50,[47],2.7 µM
same,TGI,[47],9.25 µM
same,GI50,[48],2.83 µM
same,TGI,[48],11.9 µM
same,GI50,[49],3.18 µM
same,TGI,[49],29.2 µM
same,GI50,[50],3.26 µM
same,TGI,[50],> 100 µM
same,GI50,[51],2.63 µM
same,TGI,[51],19.6 µM
same,GI50,[52],6.57 µM
same,TGI,[52],> 100 µM
same,GI50,[53],3.94 µM
same,TGI,[53],> 100 µM
same,GI50,[54],27.3 µM
same,TGI,[54],> 100 µM
same,GI50,[55],4.04 µM
same,TGI,[55],> 100 µM
same,GI50,[56],5.28 µM
same,TGI,[56],92.8 µM
